Data taken from patent US20210346425A1, “BOTANICAL FILM-FORMING ACNE COMPOSITIONS” (priority 2018, published 2021).

Columns and labels:
S. aureus = experiment: Rapid kill (15 seconds) suspension test, ASTM E2783-11; format: cell-based; conditions: 15 seconds contact, ingredient in FGZ gel, log 10 reduction of 3.0 or higher counts as effective
Protocol: Table 2: Antibacterial Activity (Rapidity of Kill Test Organism S. aureus)
Rapid kill (15 seconds) test tube method described in ASTM-E2783-1198751-1 (suspension test).
In vitro rapid-kill test was carried out according to ASTM E2783-11; 10^8 CFU mL^−1 microbial cultures were prepared in a TSA media in order to determine the antimicrobial activity of acne formulations. 0.9 mL acne formulation was kept in contact with 0.1 mL microbial cultures for 15 seconds and subsequently neutralized using agent DE. PBS was used as a control.

[1] = Zone of inhibition test of salicylic acid and botanicals in FGZ base; format: cell-based; conditions: ingredients in FGZ base; test organism not given
Protocol: Various botanicals, salicylic acid and combinations were mixed in FGZ gel and antibacterial efficacy was evaluated.
Table 1: Antibacterial Activity of Salicylic Acid and Botanicals in FGZ Base (Zone of Inhibition Test)

| Compound | Log reductrion from control growth (S. aureus) | Zone of inhibition (mm) [1] [mm] |
| --- | --- | --- |
| O=C(O)c1ccccc1O [Salicylic acid 2%, Salicylic acid] | 2.1 | 1 |
| [H]/N=C(\N/C(=N/[H])NCCCCCCNC(=N)NC(=N)Nc1ccc(Cl)cc1)Nc1ccc(Cl)cc1 [chlorhexidine gluconate] | 0.2 | – |
